Patent US20250101023A1, “HETEROARYL DERIVATIVE AND USES THEREOF” (IUCF-HYU (INDUSTRY-UNIVERSITY COOPERATION FOUNDATION …, priority 2022, published 2025)

Experiments:
Experiment in all cases: Kinome-wide profiling
Type in all cases: biochemical
Conditions in all cases: read-out: % Residual Activity (mean)
VRK1 = VRK1 (Homo sapiens (Human), UniProt Q99986)
ITK = ITK (Homo sapiens (Human), UniProt Q08881)
p70S6K/RPS6KB1 = p70S6K/RPS6KB1 (Homo sapiens (Human), UniProt P23443)
NEK11 = NEK11 (Homo sapiens (Human), UniProt Q8NG66)
RSK4 = RSK4 (Homo sapiens (Human), UniProt Q9UK32)
EGFR = EGFR (Homo sapiens (Human), UniProt P00533)
FLT4/VEGFR3 = FLT4/VEGFR3 (Homo sapiens (Human), UniProt P35916)
FLT4/VEGFR3, sequence (P35916 25-1363): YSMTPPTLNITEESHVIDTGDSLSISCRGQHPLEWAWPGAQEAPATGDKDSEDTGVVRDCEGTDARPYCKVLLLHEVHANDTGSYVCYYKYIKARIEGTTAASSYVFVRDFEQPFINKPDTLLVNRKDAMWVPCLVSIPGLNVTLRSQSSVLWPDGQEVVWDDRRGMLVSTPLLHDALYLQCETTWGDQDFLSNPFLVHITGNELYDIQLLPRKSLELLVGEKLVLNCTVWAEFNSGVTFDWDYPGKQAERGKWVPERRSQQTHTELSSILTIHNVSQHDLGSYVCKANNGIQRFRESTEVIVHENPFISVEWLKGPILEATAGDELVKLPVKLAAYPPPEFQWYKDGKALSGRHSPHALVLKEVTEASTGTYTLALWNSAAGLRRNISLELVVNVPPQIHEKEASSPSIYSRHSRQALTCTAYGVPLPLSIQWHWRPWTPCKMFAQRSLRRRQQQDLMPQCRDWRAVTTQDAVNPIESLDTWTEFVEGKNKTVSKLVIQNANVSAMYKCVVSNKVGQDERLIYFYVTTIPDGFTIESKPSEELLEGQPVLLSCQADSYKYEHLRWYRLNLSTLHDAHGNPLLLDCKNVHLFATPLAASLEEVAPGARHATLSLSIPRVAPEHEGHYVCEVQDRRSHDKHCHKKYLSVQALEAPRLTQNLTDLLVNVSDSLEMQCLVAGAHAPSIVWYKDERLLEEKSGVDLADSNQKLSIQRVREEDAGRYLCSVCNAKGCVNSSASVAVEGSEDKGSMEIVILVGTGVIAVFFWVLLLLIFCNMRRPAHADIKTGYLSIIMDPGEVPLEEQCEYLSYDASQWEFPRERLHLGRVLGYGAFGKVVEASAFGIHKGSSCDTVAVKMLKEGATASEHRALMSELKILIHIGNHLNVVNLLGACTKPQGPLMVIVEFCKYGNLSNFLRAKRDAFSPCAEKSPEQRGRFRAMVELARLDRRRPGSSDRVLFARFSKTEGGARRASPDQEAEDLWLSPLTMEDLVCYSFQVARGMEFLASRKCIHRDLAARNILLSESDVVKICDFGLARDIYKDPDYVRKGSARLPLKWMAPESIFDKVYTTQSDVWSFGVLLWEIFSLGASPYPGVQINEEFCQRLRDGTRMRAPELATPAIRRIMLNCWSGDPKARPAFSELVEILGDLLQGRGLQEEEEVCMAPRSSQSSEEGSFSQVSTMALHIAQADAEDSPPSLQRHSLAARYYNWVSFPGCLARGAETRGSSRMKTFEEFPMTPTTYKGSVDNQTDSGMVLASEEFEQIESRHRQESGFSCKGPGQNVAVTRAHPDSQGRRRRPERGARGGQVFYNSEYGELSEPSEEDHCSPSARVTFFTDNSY

PAK1 = PAK1 (Homo sapiens (Human), UniProt Q13153)
CDK2/cyclin A = CDK2/cyclin A (Homo sapiens (Human), UniProt P24941)
ABL2/ARG = ABL2/ARG (Homo sapiens (Human), UniProt P42684)
PKCtheta = PKCtheta (Homo sapiens (Human), UniProt Q04759)
CDK2/cyclin O = CDK2/cyclin O (Homo sapiens (Human), UniProt P24941)
LRRK2 = LRRK2 (Homo sapiens (Human), UniProt Q5S007)
NEK1 = NEK1 (Homo sapiens (Human), UniProt Q96PY6)
LATS2 = LATS2 (Homo sapiens (Human), UniProt Q9NRM7)
STK32B/YANK2 = STK32B/YANK2 (Homo sapiens (Human), UniProt Q9NY57)
STK32B/YANK2, sequence (Q9NY57 whole entry): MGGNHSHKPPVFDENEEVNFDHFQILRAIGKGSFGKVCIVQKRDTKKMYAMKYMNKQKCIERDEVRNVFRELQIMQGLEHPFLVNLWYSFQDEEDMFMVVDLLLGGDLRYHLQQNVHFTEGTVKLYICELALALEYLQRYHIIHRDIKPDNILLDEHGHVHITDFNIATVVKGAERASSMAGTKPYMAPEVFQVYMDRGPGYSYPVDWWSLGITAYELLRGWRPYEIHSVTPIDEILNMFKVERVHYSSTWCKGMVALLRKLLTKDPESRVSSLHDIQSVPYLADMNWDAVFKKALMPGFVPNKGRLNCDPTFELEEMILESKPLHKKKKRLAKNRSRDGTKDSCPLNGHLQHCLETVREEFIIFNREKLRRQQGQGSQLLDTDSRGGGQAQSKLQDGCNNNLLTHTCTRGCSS

TBK1 = TBK1 (Homo sapiens (Human), UniProt Q9UHD2)
BRK = BRK (Homo sapiens (Human), UniProt Q13882)
P38b/MAPK11 = P38b/MAPK11 (Homo sapiens (Human), UniProt Q15759)
RIPK4 = RIPK4 (Homo sapiens (Human), UniProt P57078)
EPHB1 = EPHB1 (Homo sapiens (Human), UniProt P54762)
CDK4/cyclin D2 = CDK4/cyclin D2 (Homo sapiens (Human), UniProt P11802)
BRAF = BRAF (Homo sapiens (Human), UniProt P15056)
BRAF, sequence (P15056 whole entry): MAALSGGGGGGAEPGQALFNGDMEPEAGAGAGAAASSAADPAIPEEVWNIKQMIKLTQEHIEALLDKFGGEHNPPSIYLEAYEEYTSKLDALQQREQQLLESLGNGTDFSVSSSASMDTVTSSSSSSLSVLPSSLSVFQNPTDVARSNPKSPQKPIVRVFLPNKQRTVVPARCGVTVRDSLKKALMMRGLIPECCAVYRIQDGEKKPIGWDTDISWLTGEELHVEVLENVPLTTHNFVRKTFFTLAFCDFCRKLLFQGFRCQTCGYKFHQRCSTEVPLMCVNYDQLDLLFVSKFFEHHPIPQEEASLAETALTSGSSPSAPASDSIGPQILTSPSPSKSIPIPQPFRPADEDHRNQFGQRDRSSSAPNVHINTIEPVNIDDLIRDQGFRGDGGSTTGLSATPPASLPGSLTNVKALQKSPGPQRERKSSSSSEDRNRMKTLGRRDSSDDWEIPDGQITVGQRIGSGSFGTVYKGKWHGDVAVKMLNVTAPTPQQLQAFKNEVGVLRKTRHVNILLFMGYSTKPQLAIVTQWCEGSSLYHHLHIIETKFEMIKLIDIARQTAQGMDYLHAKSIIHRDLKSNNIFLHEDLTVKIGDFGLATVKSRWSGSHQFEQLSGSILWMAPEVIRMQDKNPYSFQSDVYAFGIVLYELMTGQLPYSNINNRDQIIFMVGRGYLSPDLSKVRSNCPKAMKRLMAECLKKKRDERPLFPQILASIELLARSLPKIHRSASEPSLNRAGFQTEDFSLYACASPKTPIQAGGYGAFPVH

SGK2 = SGK2 (Homo sapiens (Human), UniProt Q9HBY8)
SGK2, sequence (Q9HBY8 whole entry): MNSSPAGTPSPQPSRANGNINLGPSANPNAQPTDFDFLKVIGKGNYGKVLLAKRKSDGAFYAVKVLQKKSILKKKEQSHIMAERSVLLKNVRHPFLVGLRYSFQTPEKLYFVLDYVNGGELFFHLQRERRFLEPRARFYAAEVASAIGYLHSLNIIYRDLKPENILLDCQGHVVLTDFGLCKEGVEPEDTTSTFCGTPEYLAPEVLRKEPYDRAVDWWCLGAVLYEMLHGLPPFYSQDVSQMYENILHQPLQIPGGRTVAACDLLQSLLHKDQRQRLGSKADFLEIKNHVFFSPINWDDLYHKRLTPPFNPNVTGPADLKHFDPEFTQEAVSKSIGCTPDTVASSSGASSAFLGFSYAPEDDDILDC

DYRK3 = DYRK3 (Homo sapiens (Human), UniProt O43781)
DYRK3, sequence (O43781 whole entry): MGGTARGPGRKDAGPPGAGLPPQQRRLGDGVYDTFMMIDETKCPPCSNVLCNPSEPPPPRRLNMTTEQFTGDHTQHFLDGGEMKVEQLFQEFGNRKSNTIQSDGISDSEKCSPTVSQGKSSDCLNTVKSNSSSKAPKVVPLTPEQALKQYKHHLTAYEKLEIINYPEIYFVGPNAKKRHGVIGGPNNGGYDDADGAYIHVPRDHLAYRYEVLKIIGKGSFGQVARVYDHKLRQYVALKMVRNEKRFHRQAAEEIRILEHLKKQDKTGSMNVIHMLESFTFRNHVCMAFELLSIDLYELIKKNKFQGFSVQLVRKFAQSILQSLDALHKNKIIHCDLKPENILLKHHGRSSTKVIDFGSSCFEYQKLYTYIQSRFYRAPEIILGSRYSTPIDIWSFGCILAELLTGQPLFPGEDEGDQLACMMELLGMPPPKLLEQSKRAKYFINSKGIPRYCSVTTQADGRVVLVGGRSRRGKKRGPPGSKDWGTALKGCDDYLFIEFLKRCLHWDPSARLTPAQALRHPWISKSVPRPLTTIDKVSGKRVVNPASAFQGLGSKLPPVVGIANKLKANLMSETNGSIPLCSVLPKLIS

GSK3a = GSK3a (Homo sapiens (Human), UniProt P49840)
CK2a2 = CK2a2 (Homo sapiens (Human), UniProt P19784)
STK21/CIT = STK21/CIT (Homo sapiens (Human), UniProt O14578)
EPHA2 = EPHA2 (Homo sapiens (Human), UniProt P29317)
MEKK3 = MEKK3 (Homo sapiens (Human), UniProt Q99759)
JAK1 = JAK1 (Homo sapiens (Human), UniProt P23458)
PIM3 = PIM3 (Homo sapiens (Human), UniProt Q86V86)
ACK1 = ACK1 (Homo sapiens (Human), UniProt Q07912)
STK22D/TSSK1 = STK22D/TSSK1 (Homo sapiens (Human), UniProt Q9BXA7)
CDK14/cyclin Y (PFTK1) = CDK14/cyclin Y (PFTK1) (Homo sapiens (Human), UniProt O94921)
RSK2 = RSK2 (Homo sapiens (Human), UniProt P51812)
STK33 = STK33 (Homo sapiens (Human), UniProt Q9BYT3)
EPHA8 = EPHA8 (Homo sapiens (Human), UniProt P29322)
EPHA8, sequence (P29322 28-1005): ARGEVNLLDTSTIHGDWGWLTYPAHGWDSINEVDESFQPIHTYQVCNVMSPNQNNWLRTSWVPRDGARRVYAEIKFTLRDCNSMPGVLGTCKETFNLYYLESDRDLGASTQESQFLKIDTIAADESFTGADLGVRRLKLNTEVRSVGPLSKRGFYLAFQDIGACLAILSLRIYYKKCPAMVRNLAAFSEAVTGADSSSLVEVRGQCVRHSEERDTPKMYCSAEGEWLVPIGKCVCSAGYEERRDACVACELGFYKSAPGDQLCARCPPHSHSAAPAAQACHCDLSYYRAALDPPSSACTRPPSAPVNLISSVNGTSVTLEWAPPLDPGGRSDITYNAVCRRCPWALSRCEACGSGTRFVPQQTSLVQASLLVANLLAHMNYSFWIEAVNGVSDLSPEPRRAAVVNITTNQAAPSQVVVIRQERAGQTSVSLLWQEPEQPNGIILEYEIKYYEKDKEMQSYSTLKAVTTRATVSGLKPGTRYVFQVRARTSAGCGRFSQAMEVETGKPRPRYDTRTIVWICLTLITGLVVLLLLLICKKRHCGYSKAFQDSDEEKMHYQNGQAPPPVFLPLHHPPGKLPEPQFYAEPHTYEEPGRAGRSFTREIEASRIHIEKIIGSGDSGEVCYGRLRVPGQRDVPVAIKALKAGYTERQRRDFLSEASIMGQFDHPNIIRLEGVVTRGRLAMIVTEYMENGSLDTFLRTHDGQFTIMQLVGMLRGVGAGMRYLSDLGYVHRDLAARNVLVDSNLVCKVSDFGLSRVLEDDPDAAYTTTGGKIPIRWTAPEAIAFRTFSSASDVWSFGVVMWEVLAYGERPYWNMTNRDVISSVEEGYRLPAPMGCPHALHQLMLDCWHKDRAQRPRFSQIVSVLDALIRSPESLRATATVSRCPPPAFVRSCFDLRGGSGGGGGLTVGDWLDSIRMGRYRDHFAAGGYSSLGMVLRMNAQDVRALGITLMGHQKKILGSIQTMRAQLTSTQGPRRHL

FGFR2 = FGFR2 (Homo sapiens (Human), UniProt P21802)

p70S6K/RPS6KB1, sequence (P23443 whole entry): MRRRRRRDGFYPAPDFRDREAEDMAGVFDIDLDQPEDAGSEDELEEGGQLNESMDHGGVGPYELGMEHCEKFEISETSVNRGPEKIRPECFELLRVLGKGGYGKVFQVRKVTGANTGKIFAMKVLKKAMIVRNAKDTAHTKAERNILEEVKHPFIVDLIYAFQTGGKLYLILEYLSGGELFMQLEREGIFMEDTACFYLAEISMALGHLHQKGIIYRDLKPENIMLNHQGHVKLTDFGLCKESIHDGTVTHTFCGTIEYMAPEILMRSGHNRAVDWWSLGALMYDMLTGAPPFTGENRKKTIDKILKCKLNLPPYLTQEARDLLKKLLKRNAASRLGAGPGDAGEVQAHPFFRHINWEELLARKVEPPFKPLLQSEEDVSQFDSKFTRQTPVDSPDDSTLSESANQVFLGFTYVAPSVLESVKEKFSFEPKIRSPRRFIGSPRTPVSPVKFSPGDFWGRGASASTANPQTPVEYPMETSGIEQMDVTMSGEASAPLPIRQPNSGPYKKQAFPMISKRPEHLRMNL

CCn1cnc2c(NCc3ccc(-c4ccccn4)nc3)nc(-c3ccc(N)nc3)nc21 [Example 53, N-([2,2′-bipyridin]-5-ylmethyl)-2-(6-aminopyridin-3-yl)-9-ethyl-9H-purin-6-amine]
remaining activity at 10 µM (VRK1): 87.3% | remaining activity at 10 µM (ITK): 81.7% | remaining activity at 10 µM (p70S6K/RPS6KB1): 92.1% | remaining activity at 10 µM (NEK11): 94.2% | remaining activity at 10 µM (RSK4): 54.2% | remaining activity at 10 µM (EGFR): 83.7% | remaining activity at 10 µM (FLT4/VEGFR3): 10% | remaining activity at 10 µM (PAK1): 24.5% | remaining activity at 10 µM (CDK2/cyclin A): 1.19% | remaining activity at 10 µM (ABL2/ARG): 56.1% | remaining activity at 10 µM (PKCtheta): 79.8% | remaining activity at 10 µM (CDK2/cyclin O): 0.54% | remaining activity at 10 µM (LRRK2): 17.8% | remaining activity at 10 µM (NEK1): 92.3% | remaining activity at 10 µM (LATS2): 77.4% | remaining activity at 10 µM (STK32B/YANK2): 57.6% | remaining activity at 10 µM (TBK1): 55% | remaining activity at 10 µM (BRK): 46.6% | remaining activity at 10 µM (P38b/MAPK11): 64.7% | remaining activity at 10 µM (RIPK4): 97.8% | remaining activity at 10 µM (EPHB1): 13.6% | remaining activity at 10 µM (CDK4/cyclin D2): 21.8% | remaining activity at 10 µM (BRAF): 60.8% | remaining activity at 10 µM (SGK2): 84.7% | remaining activity at 10 µM (DYRK3): 58.6% | remaining activity at 10 µM (GSK3a): 10.6% | remaining activity at 10 µM (CK2a2): 91.3% | remaining activity at 10 µM (STK21/CIT): 97.9% | remaining activity at 10 µM (EPHA2): 42.3% | remaining activity at 10 µM (MEKK3): 94% | remaining activity at 10 µM (JAK1): 92.1% | remaining activity at 10 µM (PIM3): 86.7% | remaining activity at 10 µM (ACK1): 13.7% | remaining activity at 10 µM (STK22D/TSSK1): 38% | remaining activity at 10 µM (CDK14/cyclin Y (PFTK1)): 14% | remaining activity at 10 µM (RSK2): 69.4% | remaining activity at 10 µM (STK33): 33.5% | remaining activity at 10 µM (EPHA8): 94% | remaining activity at 10 µM (FGFR2): 33.7%
